Entries after “also recorded” stand apart in the source; their conditions may differ.
Key:
[1] = test system: PBMCs from HIV-1-infected HLA-C*14:02+ or HLA-C*14:03+ individuals; assay: ex vivo IFN-γ ELISPOT assay; type: cell-based, human; conditions: 1 μM peptide; for HLA-C*14 subtype of the individuals in whom responses were detected: initial screening, 10 HLA-C*14:02+ and 10 HLA-C*14:03+ individuals
Excerpt: To clarify whether these HLA-C*14:02- and C*14:03-binding HIV-1 peptides were T cell epitopes, we investigated T cell responses to these peptides in HIV-1-infected individuals. We assessed T cell targeting of 14 putative HIV-1 epitope sites by testing responses to the 14 NL4-3 sequence-based peptides and 9 variant peptides in 10 HLA-C*14:02^+ and 10 HLA-C*14:03^+ treatment-naive individuals living with HIV-1 subtype B using ex vivo gamma interferon (IFN-γ) ELISPOT assays. To identify HLA-C*14-restricted immunodominant epitopes, we investigated whether these peptides were recognized by virus-specific T cells in 20 individuals enabling detection of epitopes typically targeted in >5% of HLA-C*14^+ individuals. […] T cell responses to variant versions of the Gag LY9, Pol KM9, and Nef IF8 peptides were detected in a number of individuals similar to the number with responses to their NL4-3 sequence-based counterparts (Fig. 3A).
FIG 3 T cell responses to HLA-C*14:02- and/or HLA-C*14:03-binding HIV-1 peptides. (A) T cell responses to HLA-C*14:02/03-binding peptides in 20 chronically HIV-1-infected Japanese individuals with HLA-C*14:02 or HLA-C*14:03. T cell targeting of 14 putative epitopes was analyzed by testing responses to 14 NL4-3 sequence-based peptides and 9 peptides that were sequence variants thereof in ex vivo IFN-γ ELISPOT assays (peptides tested at a concentration of 1 μM). A positive response was defined as >100 spots/10^6 PBMCs (indicated by the horizontal dotted line). (B) Correlation between peptide binding to HLA-C*14:02 or HLA-C*14:03 and the frequency of responders to these peptides in HLA-C*14:02^+ (blue) and HLA-C*14:03^+ (red) individuals for NL4-3 sequence-based versions of the peptides only (left) or both NL4-3 sequence-based and variant peptides (right). Statistical analyses were performed using Pearson's correlation test.
PBMCs were separated from whole blood and stored at −80°C. ELISPOT assays were performed as previously described ([13]). Briefly, 1 × 10^5 PBMCs from HIV-1-infected individuals and a 1 μM concentration of each HLA-C*14:02- and -C*14:03-eluted HIV-1 peptide were added to 96-well polyvinylidene plates (Millipore) that had been coated overnight with 5 μg/mL anti-IFN-γ MAb 1-D1K (Mabtech). The plates were incubated for 16 h at 37°C in 5% CO2, and then the cells were stained as previously described in detail ([13]). The spots were counted with an Eliphoto-Counter instrument (Minerva Teck). The number of spots was calculated per 10^6 PBMCs; 100 spots/10^6 PBMCs was defined as a positive response, as described previously ([13]).

HLA-C*14:03 = HLA-C*14:03 (Homo sapiens, UniProt P10321, A176E/A330V/A35S/A97T/C350S/D114A/D33S/L171W/L180R/L218V/M285V/M309V/M331V/P208H/Q277E/Q291P/R121W/R243W/R45H/S123F/S297R/S48A/T329A/T363A/V319A); assay: LC-MS/MS identification of HLA-bound HIV-1 peptides from NL4-3-infected .221-C1403 cells; type: binding; parameters: key: ●: Closed circles indicate the peptide which was identified in HLA-C*1402 or/and -C*1403 expressing cells; conditions: HIV-1 NL4-3-infected .221-C1403 cells, W6/32 immunoprecipitation, two independent replicate experiments
Method: (§1) 721.221 cells expressing CD4 and HLA-C*14:02 (.221-C1402) or HLA-C*14:03 (.221-C1403) were infected with the laboratory-adapted NL4-3 HIV-1 strain. HLA-peptide complexes were isolated from cell lysates by immunoprecipitation with the anti-HLA class I antibody W6/32; then, peptides were eluted, fractionated by high-performance liquid chromatography (HPLC), and finally analyzed by LC-MS/MS. Two independent replicate experiments were performed, in which a total of 7,970 and 8,447 unique 8- to 13-mer peptide sequences were identified from .221-C1402 and .221-C1403 cells, respectively (Fig. 1A). Of these peptides, 6,163 were identified in both the C*14:02- and C*14:03-bound peptide data sets, while other peptides were detected in the acid-eluted fraction from only a single allele. […] These motifs are consistent with the HLA-C*1402/03 peptide motifs previously estimated using reported epitopes ([29]).
(§2) .221-C1402 and .221-C1403 cells were infected with HIV-1 NL4-3 in a low volume of RPMI 1640 medium (Thermo Fisher) containing 10% fetal bovine serum (FBS), 2 mM L-glutamine, 100 U/mL penicillin, 100 μg/mL streptomycin, and 10 mM HEPES (R10). Fifty microliters of NL4-3 stock virus (Reverse transcriptase activity (RT) value = 4 × 10^2 ng/mL) was added to 8 × 10^6 .221-C1402 cells or .221-C1403, and the cells were then incubated for 1.5 h at 37°C, after which 20 mL of R10 was added and the cells were cultured overnight. At day 1 postinfection, a further 20 mL R10 was added, and cells were split (1:2) on day 2. On day 3 postinfection, the proportion of cells infected with HIV-1 was determined by intracellular p24 staining, as previously described ([46]). Infected flasks were then harvested for immunoprecipitation of HLA-peptide complexes.
(§3) .221-C1402 cells or .221-C1403 cells infected with NL4-3 (1.5 × 10^8 to 2 × 10^8 cells) were harvested, washed in phosphate-buffered saline (PBS), and lysed in 5 mL of lysis buffer (1% IGEPAL 630, 300 mM NaCl, 100 mM Tris [pH 8.0], plus protease inhibitors) at 4°C for 45 min. Two centrifugation steps (2,000 × g for 10 min followed by 20,000 × g for 30 min at 4°C) were next employed to clear the lysates of cell debris prior to overnight capture of HLA-peptide complexes on W6/32-coated protein A‐Sepharose beads. W6/32-bound HLA-peptide complexes were sequentially washed with 10 to 20 mL of wash buffer 1 (0.005% IGEPAL, 50 mM Tris [pH 8.0], 150 mM NaCl, 5 mM EDTA), wash buffer 2 (50 mM Tris [pH 8.0], 150 mM NaCl), wash buffer 3 (50 mM Tris [pH 8.0], 400 mM NaCl), and finally wash buffer 4 (50 mM Tris [pH 8.0]) under gravity flow in Econo-Column glass chromatography columns (Bio-Rad). Peptide-HLA complexes were eluted from the beads with 5 mL of 10% acetic acid and, after drying under vacuum, were loaded onto a 4.6- by 50-mm ProSwift RP-1S column (Thermo Fisher Scientific) and eluted from an Ultimate 3000 HPLC system (Thermo Scientific) using a 500-μL/min flow rate over 10 min from 2% to 34% buffer B (0.1% trifluoroacetic acid [TFA] in acetonitrile) in buffer A (0.1% TFA in water). Alternate fractions were pooled to give two final peptide fractions that were dried for LC-MS/MS analysis.
(§4) Each HPLC-eluted sample was resuspended in 20 μL loading buffer, and 9 μL of it was injected onto a 3-μm-particle-size 0.075-mm by 150-mm Acclaim PepMap RSLC C18 column and further loaded onto a 2-μm-particle-size, 75-μm by 50-cm Acclaim PepMap RSLC C18 column using an Ultimate 3000 nUPLC system (Thermo Scientific). A linear gradient of 3 to 25% buffer B (0.1% formic acid, 5% dimethyl sulfoxide [DMSO] in acetonitrile) in buffer A (0.1% formic acid, 5% DMSO in water) was applied over 1 h to elute peptides from the column (flow rate of […]). Peptides were introduced, using an Easy-Spray source at 2,000 V at 40°C, into a Fusion Lumos mass spectrometer (Thermo Scientific). The ion transfer tube temperature was set to 305°C. […]

HLA-C*14:02 = HLA-C*14:02 (Homo sapiens, UniProt P10321, A176E/A330V/A35S/A97T/C350S/D114A/D33S/L171W/L180R/L218V/M285V/M309V/M331V/P208H/Q277E/Q291P/R121W/R243W/S123F/S297R/S48A/T329A/T363A/V319A); assay: LC-MS/MS identification of HLA-bound HIV-1 peptides from NL4-3-infected .221-C1402 cells; type: binding; parameters: key: ●: Closed circles indicate the peptide which was identified in HLA-C*1402 or/and -C*1403 expressing cells; conditions: HIV-1 NL4-3-infected .221-C1402 cells, W6/32 immunoprecipitation, two independent replicate experiments
Method: as §1, §2, §3, §4

[2] = 10 HLA-C*14:02+ and 10 HLA-C*14:03+ treatment-naive individuals, positive >100 spots/10^6 PBMCs

Sequence: AFHHMAREK [Nef AL9-5M9K, variant of Nef AL9, …, present in Japanese cohort viruses]
- T cell responses to peptide detected [1, 2]: not detected in any of the 20 individuals

Sequence: AFPQGKAREF [Pol AF10, HIV-1 NL4-3 Pol 7–16 peptide […], eluted only, not synthesized]
- C1403: peptide identified by LC-MS/MS in HLA-I eluate (HLA-C*14:03): ●
- C1402: peptide identified by LC-MS/MS in HLA-I eluate (HLA-C*14:02): ●

Sequence: AFVTIGKIGNM [Env AM11, HIV-1 NL4-3 Env 316–326 peptide […], eluted only, not synthesized]
- C1403: peptide identified by LC-MS/MS in HLA-I eluate (HLA-C*14:03): ●

Sequence: FHHVAREL [Nef FL8, HIV-1 NL4-3 Nef 191–198 peptide FHHVAREL]
- C1403: peptide identified by LC-MS/MS in HLA-I eluate (HLA-C*14:03): ●
- C1402: peptide identified by LC-MS/MS in HLA-I eluate (HLA-C*14:02): ●

Sequence: FYVDGAANRET [Pol FT11, HIV-1 NL4-3 Pol 595–605 peptide […]]
- C1403: peptide identified by LC-MS/MS in HLA-I eluate (HLA-C*14:03): ●

Sequence: IYHTQGYFP [Nef IP9, HIV-1 NL4-3 Nef 114–122 peptide …]
- C1403: peptide identified by LC-MS/MS in HLA-I eluate (HLA-C*14:03): ●
- C1402: peptide identified by LC-MS/MS in HLA-I eluate (HLA-C*14:02): ●

Sequence: KYHNNWRAM [Pol KM9-4N, variant of Pol KM9, …, present in Japanese cohort viruses]
- T cell responses to peptide detected [1, 2]: detected in one or more individuals
- HLA-C*14 subtype of the individuals in whom responses were detected [1]: detected in only HLA-C*14:02^+ or HLA-C*14:03^+ individuals

Sequence: LFNTVAVL [Gag LL8-2F5V, variant of Gag LL8, LFNTVAVL, present in Japanese cohort viruses]
- T cell responses to peptide detected [1, 2]: detected in one or more individuals; also recorded: weak response
- number of individuals with T cell response, of 20 tested [1, 2]: one
- HLA-C*14 subtype of the individuals in whom responses were detected [1]: detected in only HLA-C*14:02^+ or HLA-C*14:03^+ individuals

Sequence: LFNTVAVLY [Gag LY9-2F5V, variant of Gag LY9, …, present in Japanese cohort viruses]
- T cell responses to peptide detected [1, 2]: detected in one or more individuals

Sequence: LYNTIAVL [Gag LL8, HIV-1 NL4-3 Gag 78–85 peptide LYNTIAVL eluted from HLA-C*14-expressing cells]
- C1403: peptide identified by LC-MS/MS in HLA-I eluate (HLA-C*14:03): ●
- T cell responses to peptide detected [1, 2]: No T cell recognition; also recorded: no strong T cell responses
- C1402: peptide identified by LC-MS/MS in HLA-I eluate (HLA-C*14:02): ●

Sequence: PQGKAREF [Pol PF8, HIV-1 NL4-3 Pol 9–16 peptide PQGKAREF, eluted only, not synthesized]
- C1403: peptide identified by LC-MS/MS in HLA-I eluate (HLA-C*14:03): ●

Sequence: SFNISTSI [Env SI8, HIV-1 NL4-3 Env 158–165 peptide SFNISTSI, eluted only, not synthesized]
- C1403: peptide identified by LC-MS/MS in HLA-I eluate (HLA-C*14:03): ●

Sequence: VTIGKIGNM [Env VM9, HIV-1 NL4-3 Env 318–326 peptide …, eluted only, not synthesized]
- C1402: peptide identified by LC-MS/MS in HLA-I eluate (HLA-C*14:02): ●

Sequence: VWGRDNNSL [Pol VWL9, HIV-1 NL4-3 Pol 33–41 peptide …, eluted only, not synthesized]
- C1403: peptide identified by LC-MS/MS in HLA-I eluate (HLA-C*14:03): ●
- C1402: peptide identified by LC-MS/MS in HLA-I eluate (HLA-C*14:02): ●

Sequence: VYHTQGYF [Nef IF8-1V, variant of Nef IF8, VYHTQGYF, present in Japanese cohort viruses]
- T cell responses to peptide detected [1, 2]: detected in one or more individuals

Sequence: VYLAWVPAH [Pol VH9, HIV-1 NL4-3 Pol 686–694 peptide …]
- C1403: peptide identified by LC-MS/MS in HLA-I eluate (HLA-C*14:03): ●

Sequence: VYYDPSKDLIA [Pol VA11, HIV-1 NL4-3 Pol 472–482 peptide […]]
- C1403: peptide identified by LC-MS/MS in HLA-I eluate (HLA-C*14:03): ●

Sequence: YTSLIHSLI [Env YI9, HIV-1 NL4-3 Env 638–646 peptide …, eluted only, not synthesized]
- C1402: peptide identified by LC-MS/MS in HLA-I eluate (HLA-C*14:02): ●
